# Measurements: publication PMC7377239, “Cardiovascular Effects of Polychlorinated Biphenyls and Their Major Metabolites” (Environmental Health Perspectives, 2020)
# Where two headings read alike, the source gives them in different places.
# Test system: iCell cardiomyocytes (human iPSC-derived cardiomyocytes)
# Experiment: Intracellular Ca2+ flux / beating parameters in iCell cardiomyocytes (FLIPR tetra), 90 min or 24 h
# Format: cell-based
# Details: for activity at 0.01 µM / activity at 0.1 µM / activity at 1 µM / activity at 10 µM / activity at 100 µM: Homo sapiens, Cardiomyocyte, 0.00 µM = 100.00; for activity at 0.1 µM: 0.10 µM
# In short: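 Gelatin-plated iCell cardiomyocytes (5,000/well) were dye-loaded for 2 h at 37 °C, then exposed for 90 min or 24 h to PCBs/metabolites (5× plates at 0.05–500 µM; 0.5% DMSO final) in triplicate. Ca2+ flux was read for 100 s at 8 Hz and 37 °C. Peak height, frequency, spacing CV and decay/rise ratio were vehicle-normalized and fitted with a four-parameter logistic model, with POD set at 1 SD of vehicle.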
# [1] = 1.5 h, 90min, read-out: cm.amp.avg.90min
# [2] = 1.5 h, 90min, read-out: cm.amp.cv.90min
# [3] = 1.5 h, 90min, read-out: cm.bpm.90min
# [4] = 1.5 h, 90min, read-out: cm.decay.rise.90min
# [5] = 1.5 h, 90min, read-out: cm.spacing.cv.90min
# [6] = 24 h, 24hrs, read-out: cm.amp.avg.24hrs
# [7] = 24 h, 24hrs, read-out: cm.amp.cv.24hrs
# [8] = 24 h, 24hrs, read-out: cm.bpm.24hrs
# [9] = 24 h, 24hrs, read-out: cm.decay.rise.24hrs
# [10] = 24 h, 24hrs, read-out: cm.spacing.cv.24hrs
smiles,measurement,setting,value
Oc1cc(Cl)c(-c2cc(Cl)ccc2Cl)cc1Cl [4-OH PCB52],activity at 0.01 µM,[1],107%
same,activity at 0.01 µM,[2],94.5%
same,activity at 0.01 µM,[3],97.8%
same,activity at 0.01 µM,[4],98.4%
same,activity at 0.01 µM,[5],115%
same,activity at 0.1 µM,[1],103%
same,activity at 0.1 µM,[2],96.5%
same,activity at 0.1 µM,[3],99.1%
same,activity at 0.1 µM,[4],96.6%
same,activity at 0.1 µM,[5],104%
same,activity at 1 µM,[1],110%
same,activity at 1 µM,[2],99.2%
same,activity at 1 µM,[3],91.5%
same,activity at 1 µM,[4],99.2%
same,activity at 1 µM,[5],108%
same,activity at 10 µM,[1],105%
same,activity at 10 µM,[2],100%
same,activity at 10 µM,[3],58.9%
same,activity at 10 µM,[4],114%
same,activity at 10 µM,[5],102%
same,activity at 100 µM,[1],0%
same,activity at 100 µM,[2],0%
same,activity at 100 µM,[3],0%
same,activity at 100 µM,[4],0%
same,activity at 100 µM,[5],0%
same,activity at 0.01 µM,[6],125%
same,activity at 0.01 µM,[7],96.2%
same,activity at 0.01 µM,[8],105%
same,activity at 0.01 µM,[9],93.1%
same,activity at 0.01 µM,[10],102%
same,activity at 0.1 µM,[6],79.9%
same,activity at 0.1 µM,[7],128%
same,activity at 0.1 µM,[8],95.5%
same,activity at 0.1 µM,[9],89.2%
same,activity at 0.1 µM,[10],94%
same,activity at 1 µM,[6],112%
same,activity at 1 µM,[7],79.4%
same,activity at 1 µM,[8],86.9%
same,activity at 1 µM,[9],101%
same,activity at 1 µM,[10],82.1%
same,activity at 10 µM,[6],80.2%
same,activity at 10 µM,[7],113%
same,activity at 10 µM,[8],86.9%
same,activity at 10 µM,[9],104%
same,activity at 10 µM,[10],96.7%
same,activity at 100 µM,[6],0%
same,activity at 100 µM,[7],0%
same,activity at 100 µM,[8],0%
same,activity at 100 µM,[9],0%
same,activity at 100 µM,[10],0%
Oc1cc(Cl)c(-c2cc(Cl)ccc2Cl)cc1Cl [4-OH-PCB 52],effect on Ca2+ flux,"iPSC-CM, 100 μM, because of loss of cell viability",complete block of Ca^2+ flux
